# Measured values: BindingDB's records for doi:10.1021/acsmedchemlett.0c00340 (California Institute of Technology, 2020)
# Test: Positive allosteric modulator activity at human alpha1beta2S GABA-A receptor expressed in Xenopus laevis oocytes assessed as change in GABA EC50 at 40 uM by two electrode voltage-clamp assay
row,SMILES,EC50
1,CN1CC[C@]2(O)c3ccccc3N(C)[C@]12c1ccccc1,13 µM
2,CN1CC[C@]2(O)c3cc(I)ccc3N(C)[C@]12c1ccccc1,9 µM
3,CN1CC[C@]2(O)c3cc(Br)ccc3N(C)[C@]12c1ccccc1,16 µM
